# Experimental data published in patent US20230287027A1, “ADJUVANT WITH TLR4 AGONIST ACTIVITY” (Sumitomo Pharma Co., Ltd, priority 2020, published 2023).
# Tests used:
# mouse TLR4 = biological target: T1, mouse TLR4 (Mus musculus, UniProt Q9JHF9+Q9QUK6); test: Mouse TLR4 reporter gene assay (Test 2); assay type: cell-based; details: HEK-Blue mTLR4 cell line, SEAP reporter, 37° C. 16-20 hours, 0.1% DMSO; concentration giving half of maximal SEAP level induced with LPS
# T1 construct: host or cells: HEK-Blue mTLR4 cell line
# T1 sequence (Q9QUK6 26-835): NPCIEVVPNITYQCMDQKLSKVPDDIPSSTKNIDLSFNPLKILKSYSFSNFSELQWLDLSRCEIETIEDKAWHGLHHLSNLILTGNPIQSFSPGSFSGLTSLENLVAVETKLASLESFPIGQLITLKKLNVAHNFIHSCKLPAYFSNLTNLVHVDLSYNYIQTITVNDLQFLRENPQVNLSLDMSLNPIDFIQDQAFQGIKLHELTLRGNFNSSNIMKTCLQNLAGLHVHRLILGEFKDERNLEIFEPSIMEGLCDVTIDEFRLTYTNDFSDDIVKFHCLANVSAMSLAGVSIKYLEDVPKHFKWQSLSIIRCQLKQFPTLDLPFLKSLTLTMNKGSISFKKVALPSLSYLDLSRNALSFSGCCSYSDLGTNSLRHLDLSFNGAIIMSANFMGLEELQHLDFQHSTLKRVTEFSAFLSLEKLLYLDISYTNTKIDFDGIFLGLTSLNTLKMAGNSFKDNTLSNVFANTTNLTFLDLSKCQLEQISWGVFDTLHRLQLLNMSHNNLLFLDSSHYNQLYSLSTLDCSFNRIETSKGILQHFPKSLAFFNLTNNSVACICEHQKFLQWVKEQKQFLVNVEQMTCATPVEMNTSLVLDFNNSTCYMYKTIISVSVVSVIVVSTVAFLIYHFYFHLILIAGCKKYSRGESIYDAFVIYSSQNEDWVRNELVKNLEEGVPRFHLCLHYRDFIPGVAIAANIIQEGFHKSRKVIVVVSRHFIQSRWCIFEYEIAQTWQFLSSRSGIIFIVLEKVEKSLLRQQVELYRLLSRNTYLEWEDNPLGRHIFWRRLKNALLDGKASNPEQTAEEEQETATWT
# T1 sequence (Q9JHF9 19-160): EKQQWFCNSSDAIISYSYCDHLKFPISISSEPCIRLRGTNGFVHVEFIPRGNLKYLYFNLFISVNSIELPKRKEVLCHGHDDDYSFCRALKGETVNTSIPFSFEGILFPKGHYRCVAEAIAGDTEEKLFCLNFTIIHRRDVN
# Text: Mouse TLR4 Reporter Gene Assay
# HEK-Blue™ mTLR4 cell line (Invivogen) is a stably co-transfected cell line which expresses mouse TLR4, MD2, CD14 and secretory SEAP reporter gene under the transcriptional regulation of an NF-κB response element. The TLR4 expression of the cell line has been already tested by RT-PCR, flow cytometry. Transfectants with stable expression were selected using the antibiotic HEK-Blue™ Selection. TLR signaling leads to the translocation of NF-κB and the activation of the promoter results in expression of the SEAP gene. TLR4-specific activation was assessed by determining the level of SEAP produced following incubation of the cells at 37° C. for 16-20 hours with each compound prepared in Examples and Reference examples in the presence of 0.1% (v/v) DMSO. The mouse TLR4 activity for the present compound was assessed by mouse TLR4 reporter gene assay, and the concentration of the compound concentration which produced half of the maximal level of SEAP induced with LPS was determined as EC50.
# human TLR4 = biological target: T2, human TLR4 (Homo sapiens, UniProt O00206+Q9Y6Y9); test: Human TLR4 reporter gene assay (Test 1); assay type: cell-based; details: HEK-Blue hTLR4 cell line, SEAP reporter, 37° C. 16-20 hours, 0.1% DMSO; concentration giving half of maximal SEAP level induced with LPS
# T2 construct: host or cells: HEK-Blue hTLR4 cell line
# Text: Human TLR4 Reporter Gene Assay
# HEK-Blue™ hTLR4 cell line (Invivogen Corporation) is a stably co-transfected cell line which expresses human TLR4, MD2, CD14, and secretory alkaline phosphatase (SEAP) reporter gene under the transcriptional regulation of an NF-κB response element. The TLR4 expression of the cell line has been already tested by RT-PCR, flow cytometry. Transfectants with stable expression were selected using the antibiotic HEK-Blue™ Selection. TLR signaling leads to the translocation of NF-κB and the activation of the promoter results in expression of the SEAP gene. TLR4-specific activation was assessed by determining the level of SEAP produced following incubation of the cells at 37° C. for 16-20 hours with each compound prepared in Examples and Reference examples in the presence of 0.1% (v/v) DMSO. The human TLR4 activity for the present compound was assessed by human TLR4 reporter gene assay, and the concentration of the compound concentration which produced half of the maximal level of SEAP induced with lipopolysaccharide (LPS) was determined as EC50.
# T2 sequence (O00206 24-839): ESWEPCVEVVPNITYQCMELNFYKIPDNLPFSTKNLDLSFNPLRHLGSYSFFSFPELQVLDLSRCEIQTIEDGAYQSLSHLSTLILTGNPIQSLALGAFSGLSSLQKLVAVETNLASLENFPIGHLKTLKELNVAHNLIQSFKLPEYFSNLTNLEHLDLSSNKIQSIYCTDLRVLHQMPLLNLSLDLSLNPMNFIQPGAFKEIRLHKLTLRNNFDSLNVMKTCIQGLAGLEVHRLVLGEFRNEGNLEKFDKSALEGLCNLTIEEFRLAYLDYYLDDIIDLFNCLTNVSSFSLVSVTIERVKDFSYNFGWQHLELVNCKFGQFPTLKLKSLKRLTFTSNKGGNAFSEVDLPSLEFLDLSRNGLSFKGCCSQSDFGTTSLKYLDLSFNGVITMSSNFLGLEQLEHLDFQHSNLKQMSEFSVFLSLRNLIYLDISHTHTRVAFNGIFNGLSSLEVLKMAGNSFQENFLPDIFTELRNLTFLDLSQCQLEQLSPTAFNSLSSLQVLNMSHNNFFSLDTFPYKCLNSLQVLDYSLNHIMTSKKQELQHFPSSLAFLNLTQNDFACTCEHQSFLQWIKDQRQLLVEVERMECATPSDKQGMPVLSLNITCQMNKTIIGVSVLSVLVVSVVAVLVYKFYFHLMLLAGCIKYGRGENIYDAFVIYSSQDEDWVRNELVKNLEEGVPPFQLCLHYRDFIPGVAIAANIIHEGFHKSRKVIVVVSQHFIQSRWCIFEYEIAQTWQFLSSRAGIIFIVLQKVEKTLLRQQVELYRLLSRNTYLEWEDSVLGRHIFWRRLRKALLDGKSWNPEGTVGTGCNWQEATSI
# T2 sequence (Q9Y6Y9 17-160 limits assumed): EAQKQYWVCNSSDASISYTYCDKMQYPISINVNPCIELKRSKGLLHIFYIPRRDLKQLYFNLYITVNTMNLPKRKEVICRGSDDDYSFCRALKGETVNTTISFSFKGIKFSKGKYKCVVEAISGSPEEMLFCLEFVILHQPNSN
EC50 (mouse TLR4),EC50 (human TLR4),mouse TLR4 EC50 (mouse TLR4),human TLR4 EC50 (human TLR4),Molecule
50.3 nM,457 nM,–,–,"CCCCCCCCCCC[C@H](CC(=O)NC(COC1OC(CO)C(OP(=O)(O)O)C(OC(=O)C[C@@H](CCCCCCCCCCC)OC(=O)CCCCCCCCC)C1NC(=O)C[C@@H](CCCCCCCCCCC)OC(=O)CCCCCCCCc1ccccc1)C(=O)O)OC(=O)CCCCCCCCC (single isomer, unassigned) [compound 11]"
> 645 nM,> 645 nM,–,–,"CCCCCCCCCCC[C@H](CC(=O)NC(COC1OC(CO)C(OP(=O)(O)O)C(OC(=O)C[C@@H](CCCCCCCCCCC)OC(=O)CCCCCCCCC)C1NC(=O)C[C@@H](CCCCCCCCCCC)OC(=O)CCCCCCCCc1ccccc1)C(=O)O)OC(=O)CCCCCCCCC (single isomer, unassigned) [compound 12]"
13.5 nM,34.2 nM,–,–,CCCCCCCCCCC[C@H](CC(=O)NC(COC1OC(CO)C(OP(=O)(O)O)C(OC(=O)C[C@@H](CCCCCCCCCCC)OC(=O)CCCCCCCCC)C1NC(=O)C[C@@H](CCCCCCCCCCC)OC(=O)CCCCCCCCC)C(=O)O)OC(=O)CCCCCCCCc1ccccc1 (stereo partly shown) [compound 13]
14.2 nM,14.2 nM,–,–,CCCCCCCCCCC[C@H](CC(=O)NC(COC1OC(CO)C(OP(=O)(O)O)C(OC(=O)C[C@@H](CCCCCCCCCCC)OC(=O)CCCCCCCCC)C1NC(=O)C[C@@H](CCCCCCCCCCC)OC(=O)CCCCCCCCC)C(=O)O)OC(=O)CCCCCCCCc1ccccc1 (stereo partly shown) [compound 14]

# Continued, molecule first:
Molecule,EC50 (mouse TLR4),EC50 (human TLR4),mouse TLR4 EC50 (mouse TLR4),human TLR4 EC50 (human TLR4)
"CCCCCCCCCCC[C@H](CC(=O)NC1C(OC[C@@H](NC(=O)C[C@@H](CCCCCCCCCCC)OC(=O)CCCCCCCCC)C(=O)O)OC(CO)C(O)C1OC(=O)C[C@@H](CCCCCCCCCCC)OC(=O)CCCCCCCCC)OC(=O)CCCCCCCCc1ccccc1 (stereo partly drawn) [Example 3, (2R)-2-{[(3R)-3-(decanoyloxy)tetradecanoyl]amino}-3-{[4-{[(3R)-3-(decanoyloxy)tetradecanoyl]oxy}-5-hydroxy-6-(hydroxymethyl)-3-({(3R)-3-[(9-phenylnonanoyl)oxy]tetradecanoyl}amino)oxan-2-yl]oxy}propanoic acid]",137 nM,161 nM,–,–
"CCCCCCCCCCC[C@H](CC(=O)NC(COC1OC(CO)C(O)C(OC(=O)C[C@@H](CCCCCCCCCCC)OC(=O)CCCCCCCCC)C1NC(=O)C[C@@H](CCCCCCCCCCC)OC(=O)CCCCCCCCC)C(=O)O)OC(=O)CCCCCCCCc1ccccc1 (stereo partly drawn) [Example 5, (2S)-2-({[(3R)-3-(9-phenylnonanoyl)oxy]tetradecanoyl}amino)-3-{[3-{[(3R)-3-(decanoyloxy)tetradecanoyl]amino}-5-hydroxy-6-(hydroxymethyl)-4-({(3R)-3-(decanoyloxy)tetradecanoyl}oxy)oxan-2-yl]oxy}propanoic acid]",49.7 nM,101 nM,–,–
CCCCCCCCCCC[C@H](CC(=O)NC(COC1OC(CO)C(OP(=O)(O)O)C(OC(=O)C[C@@H](CCCCCCCCCCC)OC(=O)CCCCCCCCc2ccccc2)C1NC(=O)C[C@@H](CCCCCCCCCCC)OC(=O)CCCCCCCCC)C(=O)O)OC(=O)CCCCCCCCC (stereo partly shown) [Reference example 10],12.9 nM,12.9 nM,–,–
(2R)-2-({[(3R)-3-(9-phenylnonanoyl)oxy]tetradecanoyl}amino)-3-{[3-{[(3R)-3-(decanoyloxy)tetradecanoyl]amino}-5-hydroxy-6-(hydroxymethyl)-4-({(3R)-3-(decanoyloxy)tetradecanoyl}oxy)oxan-2-yl]oxy}propanoic acid [Example 4],–,–,0.057 µg/mL,0.077 µg/mL
